The nature of data set [1]: Dynamic vapour sorption (DVS). It is filed as physicochemical. The conditions noted are these: 25° C., RH 0-95%. As for the experimental part: About 20 mg of test compound was transferred into a SMS dynamic vapor sorption and record the weight change with respect to the atmospheric humidity at 25° C.
The following parameters were used:
drying: 60 min. under dry nitrogen
equilibrium: 60 min/Step.

A short description of data set [2]: Chemical stability testing, degradation by UPLC. It is filed as physicochemical. The conditions noted are these: stored up to 30 days, 50-80° C./10-75% RH; data not shown. As for the experimental part: Samples were extracted with solvent mixture (DMSO/water 80:20) (7 mL) in a 10 mL vial.
UPLC chromatography was performed using the following parameters:
Analysis run time: 36 min Data collection time: 30 min Injection volume: 5 μL Wavelength: scan between 200 and 400 nm Wavelength used for content uniformity calculations: 334.0 nm
The compositions of Examples 4d, 4e, 4f, 4g, 4h and 4i were stored for 14 and 30 days under conditions of 50° C./75% RH, 60° C./30% RH, 60° C./50% RH, 70° C./10% RH, 70° C./75% RH and 80° C./50% RH.

Data set [3] deals with sputum macrophages from COPD patients. The experiment in a line: Cytokine production in LPS-treated sputum macrophages from COPD patients. It is filed as cell-based. The note with it: Homo sapiens, Macrophage; at 0.1 μg/mL; LPS 1 μg/mL, 18 h; read-out: Percent Inhibition IL-6. As for the experimental part: Patients with COPD inhaled a nebulised solution of 3% (w/v) hypertonic saline using an ultrasonic nebuliser (Devilbiss, Carthage, Mo.) with tidal breathing for 5 min. This procedure was repeated a maximum of three times until enough sputum was obtained. The sputum samples were homogenized and mixed vigorously using a vortex mixer in 0.02% v/v dithiothreitol (DTT) solution. The samples were re-suspended in PBS (40 mL) followed by centrifugation at 1500 rpm at 4° C. for 10 min to obtain sputum cell pellets. The pellets were washed with PBS (40 mL). […]
Where appropriate, 1 μL of a solution containing either the test compound or reference article at the stated concentrations (either 0.1 μg/mL, 0.01 μg/mL, or 0.001 μg/mL) or alternatively 1 μL of DMSO as the vehicle control was added to each well (200 μL in media) and the cells were incubated for 2 h. […] After washing with 200 μL wash buffer per well, the beads were resuspended in sheath fluid (150 μL) and analyzed immediately. The level of each analyte in the supernatant was calculated using Xcel Fit software with a 4 or 5-parameter equation using each standard curve. The inhibitions of each cytokine production were calculated at each concentration by comparison with vehicle control.

Another data set deals with BEAS2B cells. Briefly: Poly I:C-induced ICAM-1 expression in BEAS2B cells. The format is cell-based. The note with it: Homo sapiens, BEAS-2B, 18 h after poly I:C transfection, read-out: PolyIC/ICAM1 IC50 (BEAS2B). As for the experimental part: Poly I:C was used in these studies as a simple, RNA virus mimic. Poly I:C-Oligofectamine mixture (2% Oligofectamine±1 μg/mL Poly I:C, 25 μL; Life Technologies and Invivogen Ltd., San Diego, Calif., respectively) was transfected into BEAS2B cells (human bronchial epithelial cells, ATCC). Cells were pre-incubated with final concentrations of test compounds for 2 h and the level of ICAM-1 expression on the cell surface was determined by cell-based ELISA. […]
The cells were washed with PBS-Tween (3×200 μL) and incubated with the secondary antibody (100 μL; HRP-conjugated anti-rabbit IgG, Dako Ltd., Glostrup, Denmark). […] The ICAM-1 signal was detected by reading the absorbance at 450 nm against a reference wavelength of 655 nm using a spectrophotometer. The cells were then washed with PBS-Tween (3×200 μL) and total cell numbers in each well were determined by reading absorbance at 595 nm after Crystal Violet staining (50 μL of a 2% solution in PBS) and elution by 1% SDS solution (100 μL) in PBS. The measured OD 450-655 readings were corrected for cell number by dividing with the OD595 reading in each well. The inhibition of ICAM-1 expression was calculated at each concentration of test compound by comparison with vehicle control.

Structures can show the parent of a compound that is named as a salt.

As for `CCc1cncc(Nc2cc(COc3ccc(NC(=O)Nc4cc(C(C)(C)C)nn4-c4ccc(C)cc4)c4ccccc34)ccn2)n1` [Example 2A, 1-(3-(tert-butyl)-1-(p-tolyl)-1H-pyrazol-5-yl)-3-(4-((2-((6-ethylpyrazin-2-yl)amino)pyridin-4-yl)methoxy)naphthalen-1-yl)urea maleate (Form 2)], the entries for the “hygroscopicity (DVS)” value in data set [1] and in data set [1] (listed as Example 3B) were “does not appear to be hygroscopic” and “appeared not to be hygroscopic”, respectively. In addition, in data set [2], the “percentage of total degradation, unmicronised and unblended material” value was “always lower than that for the free base”.
For the compound `CCC(=O)O[C@]1(C(=O)SCF)[C@H](C)C[C@H]2[C@@H]3C[C@H](F)C4=CC(=O)C=C[C@]4(C)[C@@]3(F)[C@@H](O)C[C@@]21C` [Fluticasone propionate, fluticasone propionate, reference compound], the inhibition (usually the relative decrease from the control value, in per cent) at 0.1 µg/mL in data set [3] came to 29 ± 21%.
With `COCC(=O)Nc1cc(Oc2ccc(NC(=O)Nc3cc(C(C)(C)C)nn3-c3ccc(C)cc3)c3ccccc23)ccn1` [Reference Compound, N-(4-(4-(3-(3-tert-Butyl-1-p-tolyl-1H-pyrazol-5-yl)ureido)naphthalen-1-yloxy)pyridin-2-yl)-2-methoxyacetamide, reference compound], the IC50 in the data set on BEAS2B cells is 3.8 nM.

(Values after patent US10045980B2, “Inhibitor of p38 map kinase” (RESPIVERT LTD, priority 2014, dated 2018).)
